This note sets out measurements from US7989478B2, “Cinnamoyl compound and use of the same” (Sumitomo Chemical Company, Limited, priority 2003, dated 2011).

The subject of assay [1] is ability of TGF-β to promote transcription of a Type I collagen gene. The experiment in a line: Inhibition of the ability of TGF-β to promote transcription of a Type I collagen gene (COL-Luc reporter gene assay). It is filed as cell-based. Particulars: final concentration 1 μM; TGF-β added; normal human fetal skin fibroblast transfected with COL-Luc; 40 hours; read-out: Inhibition percentage. As to the method:
1×10^8 cells of a normal human fetal skin fibroblast (Clontech, catalogue No. CC-2509) were cultured at 37° C. overnight under 5% CO2 atmosphere. After the cultured cells were washed with a sodium phosphate buffer (hereinafter, referred to as PBS) twice, 3 ml of PBS was added thereto and the cells were scraped away the wall of a vessel using a cell scraper (Nalgen, catalogue No. 179693). The scraped cells were collected by centrifugation (1,500 rpm, 4° C., 15 min), and these were suspended in 20 ml of PBS and centrifuged again. To the resulting precipitates were added 11 ml of Solution 2 and 4.8 μl of pronase of DNA Extraction Kit (Stratagene, catalogue No. 200600). After shaken at 60° C. for 1 hour, the resulting mixture was allowed to stand in ice for 10 minutes. Then, 4 ml of Solution 3 of the kit was added to the mixture. After mixed, the mixture was allowed to stand in ice for 5 minutes and then centrifuged (3,000 rpm, 4° C., 15 min) to recover a supernatant. To the recovered supernatant was added 2 μl of RNase per 1 ml of the supernatant and the mixture was allowed to stand at 37° C. for 15 minutes. To the mixture was added 2-fold volume of ethanol. After mixed, a white thread-like substance (genomic DNA) appeared and the substance was recovered. The recovered genomic DNA was washed with 70% ethanol and then air-dried. The air-dried genomic DNA was dissolved in 500 μl of 10 mM Tris-HCl, 1 mM EDTA (pH 8.0) (hereinafter, referred to as TE).
The resulting genomic DNA solution (the amount equivalent to 1 μg of genomic DNA), each 1 μl (10 pmol/μl) of an oligonucleotide consisting of the nucleotide sequence represented by SEQ ID No:1 and an oligonucleotide consisting of the nucleotide sequence represented by SEQ ID No:2, 29 μL of distilled water, 5 μl of the buffer attached to TaKaRa LA Taq (TAKARA SHUZO, catalogue No. RR002A), 5 μL of a Mg^2+ solution, 5 μL of a dNTP mixture and 0.5 μl of TaKaRa LA Taq (TAKARA SHUZO, catalogue No. RR002A) were mixed. After the resulting mixed solution was incubated at 94° C. for 5 minutes, the mixed solution was subjected to 30 cycles, in which one cycle consists of incubation at 94° C. for 1 minute, at 60° C. for 1 minute and then at 72° C. for 1 minute. The mixed solution was electrophoresed on a 2% agarose gel to recover about 0.5 kb of a DNA. The recovered DNA was treated with phenol/chloroform and then precipitated with ethanol to recover the DNA. The resulting DNA was dissolved in ultrapure water. To this solution were added 2.5 μl of NheI and 2.5 μl of HindIII, and then incubated at 37° C. for 3 hours. Then, the solution was electrophoresed on a 2% agarose gel to recover about 3.5 kb of a DNA. The recovered DNA was precipitated with ethanol to recover again the DNA (hereinafter, referred to as the collagen promoter DNA).
On the other hand, the vector pGL3 (Promega, catalogue No. E1751) having the nucleotide sequence encoding firefly luciferase was digested with NheI and HindIII, and then subjected to agarose gel electrophoresis as described above to recover about 5 kb of a DNA. The recovered DNA was precipitated with ethanol to recover the DNA again. To the recovered DNA were added 44 μl of distilled water, 5 μl of Buffer attached to Alkaline Phosphatase (TAKARA SHUZO, catalogue No. 2120A) and 1 μl of Alkaline Phosphatase (TAKARA SHUZO, catalogue No. 2120A). The mixed solution was incubated at 65° C. for 30 minutes. Then, the mixed solution was treated with phenol/chloroform twice, and precipitated with ethanol to recover the DNA (hereinafter referred to as the Luc vector DNA). Then, after about 20 ng of the collagen promoter DNA and about 20 ng of the Luc vector DNA were mixed, the same amount of a DNA Ligation kit Ver2 enzyme solution was added and this was incubated overnight at 16° C. To the mixed solution was added Escherichia coli 5Hdα (TOYOBO, catalogue No. DNA-903), this was allowed to stand in ice for 30 minutes, and then incubated at 42° C. for 45 seconds. […]
(In general: Reporter assays use an easily measured gene product as a stand-in for the process of interest.)

For assay [2], the system named is mRNA of Type I collagen gene in renal glomerulus. The experiment in a line: mRNA of Type I collagen gene in renal glomerulus of anti-Thy-1 antibody-administered rats (improvement of chronic renal failure). The conditions noted are these: for ability to improve chronic renal failure: anti-Thy-1 antibody rats; for mRNA of collagen gene: Type I collagen amount/GAPDH amount, renal cortex, anti-Thy-1 antibody +. It is filed as in vivo, rat. As to the method: IgG was purified from an ascites-lyophilized powder (CEDARLANE, lot No. 05122) containing an anti-rat CD90 (Thy1.1) monoclonal antibody using MAbTrap kit (Amersham Biosciences, catalogue No. 17-1128-01).
6 ml of a binding buffer was added to 3 ml of ascites to sufficiently recover it, and this was passed through a 0.22 μm filter. The resulting solution was applied to a pre-bufferized column, and the column was then washed with 10 ml of a binding buffer. Thereafter, the column was eluted with 5 ml of an elution buffer. From washing, each 1 ml was fractionated, and the protein concentration of each fraction was measured using bovine serum albumin as a standard. A single peak was confirmed from an elution pattern, and an IgG fraction was dialyzed against a physiological saline overnight at 4° C. The protein concentration of the resulting anti-Thy-1 antibody (IgG) was calculated.
The present compounds represented by the compound numbers (28a) (hereinafter, referred to as the present compound (28a)), the present compound represented by a compound number (30a) (hereinafter, referred to as the present compound (30a)), the present compound represented by a compound number (33a) (hereinafter, referred to as the present compound (33a)), the present compound represented by a compound number (10e) (hereinafter, referred to as the present compound (10e)), the present compound represented by a compound number (18e) (hereinafter referred to as the present compound (18e)), the present compound represented by a compound number (31e) (hereinafter, referred to as the present compound (31e)) and a corn oil which is a medium were weighed. These were mixed using a mortar and a pestle to prepare a […]. Using four 7-week old male Wistar rats [Nippon Charles River] per group, 60 μg/ml of the anti-Thy-1 antibody (IgG) or a physiological saline was intravenously injected via a tail vein at 5 ml/kg. […] A dose of the present compound was 15 mg/kg/day.
On the next day of final administration, a rat reared as described in the above (2) was slaughtered by collection of whole blood, and kidneys were isolated. A whole RNA was separated from the cortex of the isolated kidney using RNeasy Mini Kit (QIAGEN, catalogue No. 74106). To 5 μl (50 ng) of the separated whole RNA were added 1 μl of 20 μM oligo dT and 4 μl of RNase-free distilled water. After the mixture was incubated at 65° C. for 5 minutes, it was immediately ice-cooled. To 10 μl of the solution were added 4 μl of 5× buffer, 2.4 μl of MgCl2, 1 μl of 10 mM dNTP, 1 μl of RNasin, 1 μl of Improm II and 0.6 μl of RNase-free distilled water (all available from Promega), and a reverse transcription reaction was performed under the condition of at 25° C. for 5 minutes, at 42° C. for 1 hour, and at 70° C. for 15 minutes.
Into 5 μl of the reverse transcription reaction solution were mixed each 2 μl of each 1.25 pmol/μl of primers represented by SEQ ID NOS: 3 and 4, 1.25 μl of a probe (FAM-ctcgccttca tgcgcctgct agc-TAMRA) for detecting DNA of a Type I collagen gene represented by SEQ ID No:5, each 0.25 μl of Rodent GAPDH primers, 0.25 μl of a Rodent GAPDH probe, 12.5 μl of TaqMan Universal PCR Master Mix (all available from Applied Biosystem) and 1.5 μl of sterilized water in a well of Optical 96-Well Reaction Plate (Applied Biosystem, catalogue No. N801-0560). As a standard, in place of 5 μl of the reverse transcription reaction solution, each 5 μl of 500, 250, 125, 62.5, 31.25, 15.625 ng/μl rat renal cortex cDNA which had been prepared in advance was used. Thereafter, using Gene Amp 7900 (Applied Biosystem), PCR was performed under the condition of at 50° C. for 5 minutes, and 40 cycles in which one cycle is at 95° C. for 15 seconds and at 60° C. for 1 minute. […]

Setting [3] is: Example 5, 15 mg/kg/day orally for 7 days in corn oil.
Setting [4] is: Table 4, 15 mg/kg/day orally for 7 days in corn oil, Wistar rats, control group 5.6, normal group 1.7, test results p < 0.01.
Setting [5] is: Table 3, 15 mg/kg/day orally for 7 days in corn oil, Wistar rats, control group 3.4, normal group 1.9, test results p < 0.05.

For `N#CCOc1cccc(C=CC(=O)c2c(O)c3ccccc3[nH]c2=O)c1` [Compound No. (10e), 4-hydroxy-3-[3-[3-(cyanomethoxy)phenyl]-1-oxo-2-propenyl]-2(1H)-quinolinone], in assay [1], the inhibition – broadly, the change of the read-out against control, counted positive when it falls – at 1 µM was ≥ 70%. Besides, the “ability to improve chronic renal failure” value in assay [2] (setting [3]) is “have the ability to improve chronic renal failure”. The “mRNA of collagen gene” value in assay [2] (setting [4]) is 2.0.
In the same order, the values of `COCC(=O)Nc1cccc(C=CC(=O)c2c(O)c3ccccc3[nH]c2=O)c1` [Compound No. (18e), 4-hydroxy-3-[3-[3-(methoxyacetylamino)phenyl]-1-oxo-2-propenyl]-2(1H)-quinolinone] are ≥ 70%, “have the ability to improve chronic renal failure” and 1.9.
With `COC(=O)CNC(=O)c1cccc(C=CC(=O)c2c(O)cc(C)[nH]c2=O)c1` [Compound No. (28a), 4-hydroxy-3-[3-[3-[[(methoxycarbonylmethyl)amino]carbonyl]phenyl]-1-oxo-2-propenyl]-6-methyl-2(1H)-pyridinone], in assay [1], the inhibition at 1 µM is ≥ 70%. The “ability to improve chronic renal failure” value in assay [2] (setting [3]) is recorded as “have the ability to improve chronic renal failure”. Further, the “mRNA of collagen gene” value in assay [2] (setting [5]) was 2.0.
In the case of `COCCNC(=O)c1ccc(C=CC(=O)c2c(O)c3ccccc3[nH]c2=O)cc1` [Compound No. (31e), 4-hydroxy-3-[3-[4-[(2-methoxyethyl)aminocarbonyl]phenyl]-1-oxo-2-propenyl]-2(1H)-quinolinone], in assay [1], the inhibition at 1 µM is ≥ 70%. The “ability to improve chronic renal failure” value in assay [2] (setting [3]) is “have the ability to improve chronic renal failure”. Further, the “mRNA of collagen gene” value in assay [2] (setting [4]) was found to be 3.3.
For `COCCNC(=O)c1ccc(C=CC(=O)c2c(O)cc(C)[nH]c2=O)cc1` [Compound No. (33a), 4-hydroxy-3-[3-[4-[(2-methoxyethyl)aminocarbonyl]phenyl]-1-oxo-2-propenyl]-6-methyl-2(1H)-pyridinone], the “ability to improve chronic renal failure” value in assay [2] (setting [3]) was “have the ability to improve chronic renal failure”. For the same molecule, the “mRNA of collagen gene” value in assay [2] (setting [5]) stood at 2.4.
Regarding `Cc1cc(O)c(C(=O)C=Cc2cccc(OCC(=O)O)c2)c(=O)n1C` [Compound No. (37a), 4-hydroxy-3-[3-[3-(carboxymethoxy)phenyl]-1-oxo-2-propenyl]-1,6-dimethyl-2(1H)-pyridinone], the “ability to improve chronic renal failure” value in assay [2] (Example 6, orally for 7 days in 0.5% aqueous methylcellulose solution) is “has the ability to improve chronic renal failure”. Moreover, in assay [2] (Table 5 (Example 6), orally for 7 days in 0.5% aqueous methylcellulose solution, 10 Wistar rats per group, control group 2.1, normal group 1.0, test results p < 0.01), the “mRNA of collagen gene” value is recorded as 1.5.
